This is an account of results in ChEMBL document CHEMBL1201862, “PubChem BioAssay data set” (2004).

Experiment [1] has as its target Heat shock 70 kDa protein 1A (Homo sapiens, UniProt P0DMV8). The experiment in a line: inhibition of Hsp70 binding activity – biochemical, fluorescence polarization, SAR follow-up (AID 1072). (In general: In fluorescence polarisation assays a small probe gives low polarisation when free and higher when bound to something large.)
The target in experiment [2] is Glyceraldehyde-3-phosphate dehydrogenase (Homo sapiens, UniProt P04406).
The target in experiment [3] is T1, Zinc finger protein mex-5 (Caenorhabditis elegans, UniProt Q9XUB2).
T1 sequence (Q9XUB2 whole entry): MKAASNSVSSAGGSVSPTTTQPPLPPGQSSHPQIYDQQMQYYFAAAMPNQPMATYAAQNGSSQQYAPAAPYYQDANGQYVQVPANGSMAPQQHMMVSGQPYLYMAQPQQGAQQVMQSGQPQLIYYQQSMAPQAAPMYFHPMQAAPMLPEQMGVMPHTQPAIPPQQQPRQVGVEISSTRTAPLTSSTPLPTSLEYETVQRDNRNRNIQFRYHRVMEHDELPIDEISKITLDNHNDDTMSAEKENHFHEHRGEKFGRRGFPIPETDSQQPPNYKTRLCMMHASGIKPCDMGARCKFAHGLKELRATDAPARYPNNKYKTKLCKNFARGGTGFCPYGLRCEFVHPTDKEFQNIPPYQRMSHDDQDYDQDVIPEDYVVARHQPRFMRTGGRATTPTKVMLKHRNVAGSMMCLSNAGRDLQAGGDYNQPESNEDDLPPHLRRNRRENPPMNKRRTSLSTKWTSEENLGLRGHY
The experiment in a line: potency of MEX-5 RNA-binding blockers – biochemical, C. elegans, fluorescence polarization, dose response (AID 1960).

For experiment [4], the target named is Heat shock cognate 71 kDa protein (Homo sapiens, UniProt P11142). The experiment in a line: In Vitro Hsc70 Dose Response Fluorescence Polarization Assay. [Related pubchem assays: 1072 ].
The target in experiment [5] is T2, RNA-binding protein pos-1 (Caenorhabditis elegans, UniProt G5EF15).
T2 sequence (G5EF15 whole entry): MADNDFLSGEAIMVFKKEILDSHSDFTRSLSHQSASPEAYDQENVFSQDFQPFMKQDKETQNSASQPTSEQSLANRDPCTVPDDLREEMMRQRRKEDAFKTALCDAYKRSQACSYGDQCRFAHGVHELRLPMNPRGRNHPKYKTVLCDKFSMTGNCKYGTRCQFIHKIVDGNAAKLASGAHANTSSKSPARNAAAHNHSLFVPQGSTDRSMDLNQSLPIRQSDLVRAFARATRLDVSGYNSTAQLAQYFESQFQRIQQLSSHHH
Nature of the experiment: disruptors of C. elegans POS-1 RNA interaction – biochemical, fluorescence polarization, dose response (AID 1964).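 Further: purified POS-1 fused to maltose binding protein made in E. coli; potency of compounds blocking POS-1 binding to fluorescent RNA.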

For experiment [6], the target named is Potassium voltage-gated channel subfamily KQT member 2 (Rattus norvegicus, UniProt O88943). Nature of the experiment: Mode of action assay - current amplitude concentration response for derivatives of ZTZ240, a potentiator of KCNQ2 potassium channels. [Related pubchem assays: 2258 (Summary assay for the KCNQ2 potentiators.), 2239 (Primary HTS assay for KCNQ2 potentiators with 305606 compounds tested, and 1644 are found to be active.)]. Type of experiment: functional.
Sequence of Potassium voltage-gated channel subfamily KQT member 2 (O88943 whole entry): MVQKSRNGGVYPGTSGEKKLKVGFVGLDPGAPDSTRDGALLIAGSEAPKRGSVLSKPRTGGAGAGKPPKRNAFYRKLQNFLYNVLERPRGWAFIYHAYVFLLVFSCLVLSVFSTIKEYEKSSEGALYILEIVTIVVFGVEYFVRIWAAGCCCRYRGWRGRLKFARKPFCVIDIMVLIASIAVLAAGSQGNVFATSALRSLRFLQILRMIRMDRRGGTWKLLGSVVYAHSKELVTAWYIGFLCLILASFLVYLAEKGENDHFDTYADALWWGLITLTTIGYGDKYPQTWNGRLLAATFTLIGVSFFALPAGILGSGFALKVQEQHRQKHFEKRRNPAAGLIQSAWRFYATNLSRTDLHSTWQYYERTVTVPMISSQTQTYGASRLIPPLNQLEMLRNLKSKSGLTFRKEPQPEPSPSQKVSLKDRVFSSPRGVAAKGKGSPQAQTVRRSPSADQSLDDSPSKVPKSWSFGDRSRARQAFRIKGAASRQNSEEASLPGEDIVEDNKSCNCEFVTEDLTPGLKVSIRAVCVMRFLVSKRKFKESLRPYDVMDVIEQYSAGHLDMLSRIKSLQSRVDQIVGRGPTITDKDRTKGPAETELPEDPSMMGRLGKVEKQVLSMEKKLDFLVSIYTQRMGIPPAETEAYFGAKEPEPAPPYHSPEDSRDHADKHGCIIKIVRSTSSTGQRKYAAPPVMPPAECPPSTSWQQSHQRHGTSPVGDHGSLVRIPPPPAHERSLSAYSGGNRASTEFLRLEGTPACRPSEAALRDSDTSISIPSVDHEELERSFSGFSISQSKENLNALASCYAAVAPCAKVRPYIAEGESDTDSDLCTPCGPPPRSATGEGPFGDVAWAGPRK

Experiment [7] is described as follows: viability of PTEN-deleted HCT116 cells – cell-based, HCT116 PTEN knockout, dose response (AID 1047).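 Further: HCT116 colon tumor cells with PTEN knocked out; cells exposed to compound for 60 hours before readout; potency for loss of cell viability measured by luminescence.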 The class given is functional.
For experiment [8], the system named is Streptococcus sp. 'group A'. The experiment in a line: Streptococcus pyogenes SK(-)GAS viability under kanamycin – luminescence, BacTiterGlo, confirmation, counter-screen for streptokinase expression inhibitor project, dose response (AID 1900). The class given is functional, organism-based. A general note: The purpose of a counterscreen is to sort out artefacts and off-target activity.

Experiment [9] has as its target T3, Streptokinase A (Streptococcus pyogenes serotype M1, UniProt P10520).
T3 sequence (P10520 whole entry): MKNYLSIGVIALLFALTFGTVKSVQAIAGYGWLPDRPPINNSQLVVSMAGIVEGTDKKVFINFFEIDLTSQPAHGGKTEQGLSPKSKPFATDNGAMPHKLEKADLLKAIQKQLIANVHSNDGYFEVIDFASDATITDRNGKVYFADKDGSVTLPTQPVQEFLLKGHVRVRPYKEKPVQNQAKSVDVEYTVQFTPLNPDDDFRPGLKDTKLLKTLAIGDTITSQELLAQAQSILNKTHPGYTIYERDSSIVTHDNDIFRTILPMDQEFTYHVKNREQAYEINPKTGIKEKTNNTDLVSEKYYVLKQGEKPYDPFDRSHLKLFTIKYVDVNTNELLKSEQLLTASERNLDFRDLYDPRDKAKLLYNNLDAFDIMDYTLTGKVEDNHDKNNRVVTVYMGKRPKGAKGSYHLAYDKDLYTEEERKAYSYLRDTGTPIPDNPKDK
Nature of the experiment: viability-normalized secreted streptokinase activity reduction – plasminogen activation absorbance, OD405, dose response (AID 1914).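 Further: secreted streptokinase activity via plasminogen activation per viability signal from cell pellet.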 The class given is functional, Streptococcus pyogenes M1 GAS.

For experiment [10], the system named is Streptococcus. Nature of the experiment: GAS UMAA2166 growth inhibition – luminescence, BacTiterGlo, counter-screen for streptokinase expression inhibitor project, dose response (AID 1915).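 Further: potency for reduction of bacterial viability or growth.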 Type of experiment: functional, organism-based.
Experiment [11] relates to INS1. The experiment in a line: INS-1E survival protection against cytokine death – cell-based, luminescence, retest, dose response (AID 449756).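 Further: cell death triggered by IL-1 beta plus TNF-alpha plus IFN-gamma mixture; protective hits raise ATP signal compared with cytokine alone wells.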 Type of experiment: functional. As to conditions: Rattus norvegicus.
Experiment [12] is described as follows: Luminescence Cell-Based Dose Retest to Confirm Inhibitors of Cancer Stem Cells. [Related pubchem assays (depositor defined):AID2717, AID2721]. The class given is functional. The conditions noted are these: Homo sapiens.
The nature of experiment [13]: viability of HCT116 lacking mutant beta-catenin – cell-based, human colon tumor, dose response (AID 1045).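 Further: HCT116 colon tumor cells with beta catenin knocked out; cells exposed to compound for 60 hours.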 The class given is functional.
The subject of experiment [14] is Streptococcus. Nature of the experiment: Luminescence Microorganism-Based Dose Response Follow up to Identify Compounds Cytotoxic to Streptococcus. [Related pubchem assays: 1677 (Project Summary), 1915, 1914, 1902 (Retest at Dose), 1900 (Counter Screen), 1662 (Primary HTS)]. Type of experiment: functional, organism-based.
A short description of experiment [15]: Counterscreen for IDE inhibitors: Luminescence-based cell-based high throughput dose response assay to identify compounds that are cytotoxic to HEK cells. [Related pubchem assays: 434962 (Primary screen (IDE inhibitors in singlicate)), 449730 (Counterscreen (Cytotoxicity in triplicate)), 435028 (Confirmation (IDE inhibitors in triplicate)) …. The class given is functional. As to conditions: HEK293.

For experiment [16], the target named is Insulin-degrading enzyme (Homo sapiens, UniProt P14735). Nature of the experiment: Dose Response: Fluorescence polarization-based cell-based high throughput dose response assay for inhibitors of insulin-degrading enzyme (IDE). [Related pubchem assays: 434962 (Primary screen (IDE inhibitors in singlicate)), 449730 (Counterscreen (Cytotoxicity in triplicate)), 435028 (Confirmation (IDE inhibitors in triplicate)), 434984 (Summary …. The class given is functional.

Experiment [17] addresses T4, Voltage-gated N-type calcium channel alpha-1B subunit/Amyloid beta A4 precursor protein-binding family A member 1 (Homo sapiens, UniProt Q00975+Q02410). The class given is protein assay.
Experiment [18] addresses T4, Voltage-gated N-type calcium channel alpha-1B subunit/Amyloid beta A4 precursor protein-binding family A member 1. Type of experiment: protein assay. This is another data set of the same source.
The subject of experiment [19] is HeLa. The experiment in a line: Cytotoxicity counterscreen assay for transcriptional activators of heat shock protein 70 (Hsp70). [Related pubchem assays: 1203, 1252 ]. The class given is functional. The conditions noted are these: Homo sapiens.
The nature of experiment [20]: Trypanosoma cruzi growth suppression in host cells – NIH3T3 host cells, beta-gal luminescence, confirmation (AID 2044).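 Further: intracellular parasites grown in NIH/3T3 mouse fibroblasts as host cells; luminescent beta-galactosidase reporter signal from transgenic T. cruzi replicating inside host cells; inhibitors lower the luminescence signal.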 Type of experiment: functional, cell-based.
Experiment [21] is described as follows: reduction of Shn3 3'UTR-driven luciferase in osteoblasts – cell-based, Clone20 osteoblasts, firefly luciferase, cherry-picked, dose response (AID 624132).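 Further: firefly luciferase luminescence from reporter carrying the Shn3 3'UTR in osteoblasts.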 The class given is functional.
A short description of experiment [22]: loss of viability in HepG2 cells – cell-based, CellTiter-Glo, cherry-picked, cytotoxicity control for Shn3 inhibitor project, dose response (AID 624134). Type of experiment: functional. In general terms: ATP-based viability assays read luminescence as a measure of living cells.
The subject of experiment [23] is BJ. Nature of the experiment: BJ-TERT fibroblast viability loss – cell-based, RAS-independent, luminescence, dose response (AID 1933). The class given is functional. The conditions noted are these: Homo sapiens.
Experiment [24] can be described thus: microbe, parasite or virus in culture. The class given is functional. The conditions noted are these: Mycobacterium tuberculosis.
The subject of experiment [25] is BJ. Nature of the experiment: BJ-TERT-LT-ST fibroblast viability loss – cell-based, RAS-independent, luminescence, dose response (AID 1935).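 Further: BJ fibroblasts immortalized with TERT plus LT and ST oncogenes.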 The class given is functional. As to conditions: Homo sapiens.
Experiment [26] can be described thus: NIH3T3 cell viability loss – ATP luminescence, mouse fibroblasts, counter-screen, dose response (AID 2010).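 Further: cells exposed to compound for about 90 hours before reading.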 The class given is functional, cell-based.
Experiment [27] can be described thus: DRD fibroblast viability loss – cell-based, non-viral oncogenic, luminescence, dose response (AID 1934). The class given is functional. The conditions noted are these: Homo sapiens.
The subject of experiment [28] is BJ. Nature of the experiment: cells. The conditions noted are these: Homo sapiens. Type of experiment: functional, cell-based.
Experiment [29] is described as follows: non-specific 3'UTR reporter inhibition in Clone20-Shn3RL – cell-based, Renilla luciferase, cherry-picked, counter-screen for Shn3 inhibitor project, dose response (AID 624133). Type of experiment: functional.
Experiment [30] has as its target Galanin receptor type 2 (Homo sapiens, UniProt O43603). Nature of the experiment: Dose Response cell-based high-throughput screening assay to identify antagonists of galanin receptor 2 (GALR2). [Related pubchem assays: 828, 866 ]. The class given is functional.
The nature of experiment [31]: mitochondrial function rescue without frataxin homolog – Friedreich's ataxia, plus single-dose screen, dose response (AID 1465).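 Further: yeast depleted of Yfh1p frataxin homolog grown on glycerol needing respiration; WST-1 tetrazolium dye reduction as measure of cellular dehydrogenase metabolic activity.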 Type of experiment: functional.
The target of experiment [32] is Bifunctional protein GlmU (Mycobacterium tuberculosis, UniProt P9WMN3). Nature of the experiment: Inhibitors of Mycobacterial Glucosamine-1-phosphate acetyl transferase (GlmU). Secondary screen. Also noted: species or system Mycobacterium tuberculosis H37Rv.
The nature of experiment [33]: fluconazole-exposed Candida albicans growth modulators – fluorescence, retest, confirmation (AID 2467). The class given is functional, cell-based.
In experiment [34] the target is Induced myeloid leukemia cell differentiation protein Mcl-1 (Homo sapiens, UniProt Q07820). The class given is functional.
Experiment [35] in a line: NIH-3T3 fibroblast cytotoxicity, dose response, cytotoxicity control, cell-based, fluorescence, Alamar Blue, secondary assay (AID 2327).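 Further: NIH-3T3 mouse fibroblasts cultured with fluconazole at 8 µg/mL.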 The class given is functional.

Each structure is given as a SMILES string. Calls of active or inactive are those of the source.

T4 sequence (Q00975 whole entry): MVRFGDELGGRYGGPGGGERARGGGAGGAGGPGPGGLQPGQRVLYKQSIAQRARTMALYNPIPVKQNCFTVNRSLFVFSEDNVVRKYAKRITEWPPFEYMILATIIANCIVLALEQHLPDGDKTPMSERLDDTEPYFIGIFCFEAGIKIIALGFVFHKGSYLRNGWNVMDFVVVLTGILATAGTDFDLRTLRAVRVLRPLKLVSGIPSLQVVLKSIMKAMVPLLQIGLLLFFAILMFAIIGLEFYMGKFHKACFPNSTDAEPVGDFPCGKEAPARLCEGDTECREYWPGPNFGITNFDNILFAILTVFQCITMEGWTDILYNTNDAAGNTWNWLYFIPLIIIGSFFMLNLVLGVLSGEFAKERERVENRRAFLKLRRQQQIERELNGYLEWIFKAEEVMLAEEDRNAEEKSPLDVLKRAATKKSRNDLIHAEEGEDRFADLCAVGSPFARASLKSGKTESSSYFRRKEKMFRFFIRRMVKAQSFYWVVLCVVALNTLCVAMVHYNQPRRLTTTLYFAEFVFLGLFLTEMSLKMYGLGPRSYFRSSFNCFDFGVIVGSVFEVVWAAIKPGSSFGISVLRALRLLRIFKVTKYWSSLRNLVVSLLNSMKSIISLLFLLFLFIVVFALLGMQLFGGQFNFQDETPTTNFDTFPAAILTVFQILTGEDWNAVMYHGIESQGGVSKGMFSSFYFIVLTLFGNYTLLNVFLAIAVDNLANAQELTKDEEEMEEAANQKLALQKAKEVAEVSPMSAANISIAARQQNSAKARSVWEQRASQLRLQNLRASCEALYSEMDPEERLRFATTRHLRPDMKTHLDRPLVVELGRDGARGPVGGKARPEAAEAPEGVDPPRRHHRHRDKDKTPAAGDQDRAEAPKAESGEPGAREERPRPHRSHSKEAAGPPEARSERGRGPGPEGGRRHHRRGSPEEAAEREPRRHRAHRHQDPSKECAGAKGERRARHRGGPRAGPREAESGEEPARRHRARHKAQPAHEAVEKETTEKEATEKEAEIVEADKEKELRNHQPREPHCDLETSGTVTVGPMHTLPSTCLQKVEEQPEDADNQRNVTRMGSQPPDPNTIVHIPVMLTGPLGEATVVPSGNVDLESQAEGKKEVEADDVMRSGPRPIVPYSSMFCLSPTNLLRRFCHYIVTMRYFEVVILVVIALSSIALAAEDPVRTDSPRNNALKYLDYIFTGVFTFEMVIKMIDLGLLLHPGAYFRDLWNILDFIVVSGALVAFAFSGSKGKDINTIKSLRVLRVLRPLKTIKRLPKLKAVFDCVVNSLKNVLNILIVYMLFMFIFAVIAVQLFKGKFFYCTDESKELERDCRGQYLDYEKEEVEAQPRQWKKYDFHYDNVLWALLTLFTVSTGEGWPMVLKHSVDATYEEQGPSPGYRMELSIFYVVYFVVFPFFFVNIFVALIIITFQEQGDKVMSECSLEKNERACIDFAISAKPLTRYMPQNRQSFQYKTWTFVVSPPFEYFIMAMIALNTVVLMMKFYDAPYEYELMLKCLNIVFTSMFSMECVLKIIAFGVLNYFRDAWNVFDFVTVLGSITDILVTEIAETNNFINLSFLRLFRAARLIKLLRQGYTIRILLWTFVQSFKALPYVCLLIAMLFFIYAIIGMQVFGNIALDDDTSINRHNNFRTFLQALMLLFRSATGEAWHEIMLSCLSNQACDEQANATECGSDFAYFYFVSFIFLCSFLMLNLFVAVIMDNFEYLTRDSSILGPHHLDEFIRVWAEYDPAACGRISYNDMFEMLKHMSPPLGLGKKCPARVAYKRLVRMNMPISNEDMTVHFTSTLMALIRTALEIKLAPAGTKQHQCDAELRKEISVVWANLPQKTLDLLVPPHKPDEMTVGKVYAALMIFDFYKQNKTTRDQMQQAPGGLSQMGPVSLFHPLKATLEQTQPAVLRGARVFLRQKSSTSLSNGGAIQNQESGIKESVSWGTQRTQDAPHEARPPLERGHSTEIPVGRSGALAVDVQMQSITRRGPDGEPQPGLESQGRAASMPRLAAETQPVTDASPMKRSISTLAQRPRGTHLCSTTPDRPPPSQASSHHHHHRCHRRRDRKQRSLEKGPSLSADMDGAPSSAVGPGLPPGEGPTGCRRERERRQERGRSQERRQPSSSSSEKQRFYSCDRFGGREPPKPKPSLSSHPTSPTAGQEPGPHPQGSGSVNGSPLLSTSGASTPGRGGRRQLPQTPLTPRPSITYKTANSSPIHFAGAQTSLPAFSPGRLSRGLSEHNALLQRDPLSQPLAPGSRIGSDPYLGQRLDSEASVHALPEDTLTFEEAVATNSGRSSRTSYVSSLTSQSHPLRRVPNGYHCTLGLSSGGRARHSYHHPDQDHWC
T4 sequence (Q02410 whole entry): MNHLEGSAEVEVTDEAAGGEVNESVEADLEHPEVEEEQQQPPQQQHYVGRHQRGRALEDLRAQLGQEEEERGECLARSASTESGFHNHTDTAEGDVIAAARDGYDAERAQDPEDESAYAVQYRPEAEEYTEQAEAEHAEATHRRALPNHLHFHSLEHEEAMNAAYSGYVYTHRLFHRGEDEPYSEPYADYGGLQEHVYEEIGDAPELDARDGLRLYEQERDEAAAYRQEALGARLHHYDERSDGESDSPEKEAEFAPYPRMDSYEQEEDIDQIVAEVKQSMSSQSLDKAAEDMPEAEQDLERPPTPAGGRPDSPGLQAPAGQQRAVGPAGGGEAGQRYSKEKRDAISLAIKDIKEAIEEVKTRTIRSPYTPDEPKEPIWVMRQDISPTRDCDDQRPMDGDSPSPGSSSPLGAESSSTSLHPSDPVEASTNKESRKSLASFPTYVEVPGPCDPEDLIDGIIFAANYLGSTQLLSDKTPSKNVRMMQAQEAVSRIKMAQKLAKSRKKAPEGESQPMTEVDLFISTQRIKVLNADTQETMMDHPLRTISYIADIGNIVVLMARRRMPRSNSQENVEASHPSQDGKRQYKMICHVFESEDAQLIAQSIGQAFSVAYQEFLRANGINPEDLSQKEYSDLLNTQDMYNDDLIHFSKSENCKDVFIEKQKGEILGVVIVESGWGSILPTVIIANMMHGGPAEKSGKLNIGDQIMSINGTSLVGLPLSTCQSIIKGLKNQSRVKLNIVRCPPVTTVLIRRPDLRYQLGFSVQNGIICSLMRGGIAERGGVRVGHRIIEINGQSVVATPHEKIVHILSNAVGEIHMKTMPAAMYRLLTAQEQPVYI
Sequence of Heat shock 70 kDa protein 1A (P0DMV8 whole entry): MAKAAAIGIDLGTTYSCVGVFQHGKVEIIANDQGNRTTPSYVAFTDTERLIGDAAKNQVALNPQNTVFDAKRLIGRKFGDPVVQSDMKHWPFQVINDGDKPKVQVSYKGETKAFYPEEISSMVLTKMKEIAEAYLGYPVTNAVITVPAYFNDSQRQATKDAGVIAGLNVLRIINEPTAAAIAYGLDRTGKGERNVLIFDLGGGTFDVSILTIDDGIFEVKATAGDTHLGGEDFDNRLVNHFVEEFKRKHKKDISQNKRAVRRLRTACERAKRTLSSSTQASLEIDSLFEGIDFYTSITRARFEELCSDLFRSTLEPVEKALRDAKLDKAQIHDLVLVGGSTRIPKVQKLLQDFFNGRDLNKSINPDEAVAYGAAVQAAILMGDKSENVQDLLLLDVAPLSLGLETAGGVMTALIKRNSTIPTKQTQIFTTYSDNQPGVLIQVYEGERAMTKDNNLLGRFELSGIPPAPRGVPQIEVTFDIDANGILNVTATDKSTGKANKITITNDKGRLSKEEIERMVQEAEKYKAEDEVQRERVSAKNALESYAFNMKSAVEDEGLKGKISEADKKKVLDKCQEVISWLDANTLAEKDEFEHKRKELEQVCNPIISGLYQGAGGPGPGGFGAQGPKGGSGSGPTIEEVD
Sequence of Galanin receptor type 2 (O43603 whole entry): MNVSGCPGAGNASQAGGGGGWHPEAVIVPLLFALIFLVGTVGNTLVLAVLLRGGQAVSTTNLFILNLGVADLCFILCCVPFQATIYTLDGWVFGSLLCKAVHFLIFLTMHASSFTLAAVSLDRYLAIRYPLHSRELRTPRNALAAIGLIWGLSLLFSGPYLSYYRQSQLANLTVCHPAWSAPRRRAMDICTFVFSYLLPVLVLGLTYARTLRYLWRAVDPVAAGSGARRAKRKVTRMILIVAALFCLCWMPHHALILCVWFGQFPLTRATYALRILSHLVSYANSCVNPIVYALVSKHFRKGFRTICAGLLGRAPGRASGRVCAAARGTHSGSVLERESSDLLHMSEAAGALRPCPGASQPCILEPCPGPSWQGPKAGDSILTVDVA

What is called IC50 is the concentration that inhibits the measured activity by half. For orientation: EC50 means the midpoint of the concentration-response curve. In the case of `O=C(O)C1Nc2c(C(F)(F)F)ccc(Cl)c2C2C=CCC12` (configuration not stated), the IC50 in [1], in experiment [2] and in [4] was > 100 µM (not active) each time. The values for the EC50 in [3] and in [5] were 61.5 µM (active) and 110 µM (active), respectively.

As to `O=C(Nc1ccc(Br)nc1)c1cccc(F)c1`, the EC50 in [6] was 1.65 µM (active).

Broadly, the AC50 is the concentration giving half of the maximal activity seen. Turning to `O=C(Nc1cc(S(=O)(=O)Nc2ccc(Cl)cc2)ccc1N1CCCCC1)c1ccc(F)cc1`, the EC50 in experiment [7] was 29.4 µM (active); in [8] it was 10.2 µM (active); in experiment [9] it was 5.17 µM (active); in experiment [10] it was > 150 µM (not active); in [13], 21 µM (active); in experiment [14], 150 µM (active). The results for the AC50 in experiment [11] and in [12] were 8.05 µM (active) and 4.98 µM (active), respectively.

For the compound `Cc1cc(C)c2c(=O)n(CC(=O)NCCCN3CCOCC3)sc2n1`, the IC50 in experiment [15] was 21.2 µM (not active); in experiment [16], 7.16 µM (active); in experiment [17], 10.8 µM (active); in experiment [18], 46 µM (active).

In the case of `O=C(/C=C/Sc1nc[nH]n1)c1ccc(Cl)cc1`, the CC50 in experiment [19] is > 3.67 µM (not active); in [24] it was 25.4 µM (active). Further, the EC50 was 1.99 µM (active) in [20]; 4.19 µM (active) in [23]; 12.3 µM (active) in experiment [25]; 3.28 µM (active) in [26]; 5.81 µM (active) in experiment [27]; 6.44 µM (inconclusive) in experiment [28]. The AC50 in experiment [21] was 9.76 µM (active); in experiment [22], 31.2 µM (active); in experiment [29] it was 14.4 µM (active). In addition, the IC50 in experiment [30] is listed as 10.9 µM (not active).

With `CN(C)S(=O)(=O)c1cccc(NC(=S)N/N=C/c2ccc(O)c(O)c2O)c1`, the EC50 in experiment [31] was > 100 µM (active); in experiment [33], > 38 µM (not active); in experiment [3], 3.48 µM (active); in experiment [5], 15 µM (active); in experiment [35], > 150 µM (inactive). Moreover, the IC50 in [32] was 68.4 µM (active); in experiment [34], 1.17 µM (active).
